# In US8202910B2 (Sequella, Inc., priority 2006, dated 2012):
# “Also recorded” adds a separate entry of the source. Like-named read-outs stand apart in the source and are kept apart here.
# Columns and labels:
# [1] = tested on: Aspergillus fumigatus; assay: Spectrum of activity MIC, broth microdilution NCCLS M38-A (mold); format: cell-based; details: three isolates
# Experimental: Compound 109 was tested against a representative panel of commonly encountered clinical microorganisms comprising opportunistic pathogens, target pathogens and normal human flora. The spectrum of activity of compound 109 was evaluated by performing recommended broth microdilution methods. NCCLS M27-A2, 2003 for yeast and NCCLS M38-A, 2003 for mold.
# [2] = tested on: cells; assay: LD50 for selectivity index (Table 10); format: cell-based, Mycobacterium tuberculosis
# Source text: Table 10 lists MIC and LD50 data for selected compounds. […] Table 11 lists MIC data for purified substituted ethylene diamines in comparison to ethambutol (EMB).
# [3] = tested on: M. tuberculosis H37Rv; assay: Two-drug combination growth inhibition, BACTEC 460, x/y quotient; format: cell-based; details: for interaction of SQ109 with isoniazid: both drugs at 0.5 MIC
# [4] = tested on: opiate receptor (non-selective opiate); assay: CEREP receptor binding, opiate; details: tested at 10 μM
# Source text: In vitro testing for safety pharmacology and early ADMET (Absorption, Distribution, Metabolism, Excretion, Toxicity) studies of compound 109 were contracted out to CEREP (15318 NE 95th Street, Redmond, Wash., 98052, USA www.cerep.com) under a service agreement and included evaluation of inhibitory binding to a panel of 27 standard receptors and three transporters (See FIG. 60 (Table 31) and FIG. 61 (Table 32)) which included: adenosine receptors (A1 and A2A), adrenergic receptors (alpha 1, alpha 2, beta 1), angiotensin II receptor (AT1), benzodiazapene receptor (BZD), bradykinin receptor (B2), cholecystokinin receptor (CCK1), dopamine receptors (D1, D2S), endothelin receptor (ETA), GABA receptor (GABA), glutamate receptor (NMDA), histamine receptor (H1 central), melanocortin receptor (MC4), muscarinic receptor (M, non-selective), neurokinin receptor (NK1), neuropeptide Y receptor (Y), nicotinic receptor (neuronal, alpha-BGTX-insensitive), opiate receptor (non-selective opiate), orphanin receptor (ORL1), phencyclidine receptor (PCP), serotonin receptor (5-HT), sigma receptor (sigma non-selective), steroid receptor (glucocorticoid receptor, GR), and NE, DA, and 5-HT transporters.
# The specific ligand binding to the receptors is defined as the difference between the total binding and the nonspecific binding determined in the presence of an excess of unlabelled ligand.
# [5] = tested on: monkey kidney cells (Vero); assay: In vitro toxicity, Vero cells; format: cell-based; details: Primates
# Experimental: Twenty six compounds (including 37, 59 and 109) were tested in an in vitro model of toxicity using monkey kidney cells (Vero) and human cervical cancer cells (HeLa) using methods well known to those skilled in the art. The data from this toxicity testing and the MIC data were used to calculate a selectivity index (SI), the ratio of IC50:MIC (Table 15). Selectivity Indexes were ranging from 1.76 to 16.67.
# [6] = Toxicity, dose escalation study in mice; details: C57BL/6, mouse, in vivo
# Experimental: Toxicity was assessed using a dose escalation study. This study was performed with ten C57BL/6 mice per candidate. Every two days, the mice were administered an increased concentration of the drug, and monitored for detrimental effects. The administration scheme was 50, 100, 200, 400, 600, 800 and 1000 mg/kg.
# [7] = tested on: M. bovis BCG; assay: microbe, parasite or virus in culture; format: cell-based; details: Mycobacterium tuberculosis variant bovis BCG
# [8] = PK, tissue distribution, excretion and metabolism of compound 109 in mice; format: in vivo; parameters: Amount cumulatively excreted, Feces / Amount cumulatively excreted, Urine: unit not given here; details: for half-life: read-out: T1/2 el (converted)
# Experimental: Initially, analytical methods for determination of the compounds had been developed that allowed to carry out all the PK experiments, sec FIG. 29. Here is a brief description of the experiment: (1) plasma spiked with tested compounds and 10 uL of Terfenadine or plasma samples (200 uL) added; (2) ACN (2 mL) added to precipitate protein and spin at 2,500 rpm; (3) evaporate supernatant to dryness; (4) add 200 uL of the diluting solvent: methanol (with 0.1% of trifluoroacetic acid): ammonium acetate (80/20); (5) vortex, spin, and use supernatant; (6) run LC/MS/MS on Sciex API 3000.
# Conjugated metabolites are products of the typical metabolic pathway N-glucoronidation formed by reaction with glucuronic acid (D. A. Williams and T. L. Lemke in Foye's Principals of Medicinal Chemistry, 5th Ed., p.202).
# [9] = sub-MIC concentrations, listed as SQ109
smiles,measurement,setting,value
"CC(C)=CCC/C(C)=C/CNCCNC1C2CC3CC(C2)CC1C3 (stereo not shown) [Compound 109, N-Geranyl-N′-(2-adamanthyl)ethane-1,2-diamine]",MIC,[1],16 µg/mL
same,SI (Selectivity Index),[2]; LD50 : MIC,16.39
same,LD50,[2]; concentration at which 50% of the cells are killed,32 µM
same,LD50,[2]; from uM and MW,14.4 µg/mL
same,growth inhibition of inoculum,[3]; 0.5 MIC SQ109 in combination with 0.1 MIC RIF,greater than 99%
same,Synergy quotient (x/y),[3]; SQ109 1/10 MIC + INH ½ MIC,1
same,Synergy quotient (x/y),[3]; SQ109 1/10 MIC + MOX ½ MIC,1
same,Synergy quotient (x/y),[3]; SQ109 1/10 MIC + MOX ⅕ MIC,1
same,Synergy quotient (x/y),[3]; SQ109 1/10 MIC + RIF 1/10 MIC,1
same,Synergy quotient (x/y),[3]; SQ109 1/10 MIC + RIF 1/20 MIC,1
same,Synergy quotient (x/y),[3]; SQ109 1/10 MIC + RIF ¼ MIC,1
same,Synergy quotient (x/y),[3]; SQ109 1/10 MIC + RIF ½ MIC,0.16
same,Synergy quotient (x/y),[3]; SQ109 1/10 MIC + SM ½ MIC,0.98
same,Synergy quotient (x/y),[3]; SQ109 1/20 MIC + INH ½ MIC,1
same,Synergy quotient (x/y),[3]; SQ109 1/20 MIC + MOX ½ MIC,1
same,Synergy quotient (x/y),[3]; SQ109 1/20 MIC + MOX ⅕ MIC,1
same,Synergy quotient (x/y),[3]; SQ109 1/20 MIC + RIF 1/10 MIC,1
same,Synergy quotient (x/y),[3]; SQ109 1/20 MIC + RIF 1/20 MIC,1
same,Synergy quotient (x/y),[3]; SQ109 1/20 MIC + RIF ¼ MIC,1
same,Synergy quotient (x/y),[3]; SQ109 1/20 MIC + RIF ½ MIC,0.32
same,Synergy quotient (x/y),[3]; SQ109 1/20 MIC + SM ½ MIC,1
same,Synergy quotient (x/y),[3]; SQ109 ½ MIC + INH ½ MIC,0.45
same,Synergy quotient (x/y),[3]; SQ109 ½ MIC + MOX ½ MIC,0.45
same,Synergy quotient (x/y),[3]; SQ109 ½ MIC + MOX ⅕ MIC,0.51
same,Synergy quotient (x/y),[3]; SQ109 ½ MIC + RIF 1/10 MIC,0.29
same,Synergy quotient (x/y),[3]; SQ109 ½ MIC + RIF 1/20 MIC,0.61
same,Synergy quotient (x/y),[3]; SQ109 ½ MIC + RIF ¼ MIC,0.23
same,Synergy quotient (x/y),[3]; SQ109 ½ MIC + RIF ½ MIC,0.12
same,Synergy quotient (x/y),[3]; SQ109 ½ MIC + SM ½ MIC,0.57
same,Synergy quotient (x/y),[3]; SQ109 ⅕ MIC + INH ½ MIC,0.83
same,Synergy quotient (x/y),[3]; SQ109 ⅕ MIC + MOX ½ MIC,0.96
same,Synergy quotient (x/y),[3]; SQ109 ⅕ MIC + MOX ⅕ MIC,1
same,Synergy quotient (x/y),[3]; SQ109 ⅕ MIC + RIF 1/10 MIC,1
same,Synergy quotient (x/y),[3]; SQ109 ⅕ MIC + RIF 1/20 MIC,1
same,Synergy quotient (x/y),[3]; SQ109 ⅕ MIC + RIF ½ MIC,0.4
same,Synergy quotient (x/y),[3]; SQ109 ⅕ MIC + SM ½ MIC,0.74
same,interaction of SQ109 with isoniazid,[3]; listed as SQ 109,strong synergistic activity
same,interaction of SQ109 with isoniazid,[3]; listed as SQ109,synergy
same,interaction of SQ109 with pyrazinamide,"[3]; sub-MIC concentrations, PZA Test Medium, listed as SQ109",neither synergy nor additive effects; also recorded: did not show any positive interaction
same,interaction of SQ109 with rifampicin,"[3]; sub-MIC concentrations, listed as SQ 109",strong synergistic activity
same,interaction of SQ109 with ethambutol,[3]; [9],neither synergy nor additive effects; also recorded: did not show any positive interaction; also recorded: no interaction
same,interaction of SQ109 with rifampicin,[3]; [9],marked synergy
same,interaction of SQ109 with streptomycin,[3]; [9],additive effect; also recorded: only additive interaction
same,inhibition of control specific binding,[4],58%
same,IC50,[5],26 µM
same,tolerated dose,[6],800 mg/kg
same,MIC,[7],0.5 µg/mL
same,"Amount cumulatively excreted, Feces","[8]; 3 mg/kg i.v., 0-4 h",<0.01
same,"Amount cumulatively excreted, Urine","[8]; 3 mg/kg i.v., 0-4 h, unit not given",<0.01
same,"Amount cumulatively excreted, Feces","[8]; 3 mg/kg i.v., 4-8 h",0.01
same,"Amount cumulatively excreted, Urine","[8]; 3 mg/kg i.v., 4-8 h",<0.01
same,"Amount cumulatively excreted, Feces","[8]; 3 mg/kg i.v., 8-24 h",0.04
same,"Amount cumulatively excreted, Urine","[8]; 3 mg/kg i.v., 8-24 h",0.03
same,"Amount cumulatively excreted, Feces","[8]; 3 mg/kg i.v., 24-32 h",<0.01
same,"Amount cumulatively excreted, Urine","[8]; 3 mg/kg i.v., 24-32 h",0.01
same,"Amount cumulatively excreted, Feces","[8]; 3 mg/kg i.v., Total 0-32 h",0.06
same,"Amount cumulatively excreted, Urine","[8]; 3 mg/kg i.v., Total 0-32 h",0.04
same,"Amount cumulatively excreted, Feces","[8]; 25 mg/kg p.o., 0-4 h",0.48
same,"Amount cumulatively excreted, Feces","[8]; 25 mg/kg p.o., 4-8 h",0.31
same,"Amount cumulatively excreted, Feces","[8]; 25 mg/kg p.o., 8-24 h",1.12
same,"Amount cumulatively excreted, Feces","[8]; 25 mg/kg p.o., 24-32 h",0.08
same,"Amount cumulatively excreted, Feces","[8]; 25 mg/kg p.o., Total 0-32 h",2.0
same,tissue distribution,"[8]; i.v. 3 mg/kg, p.o. 25 mg/kg",primarily distributes into the lungs and spleen
same,plasma level relative to MBC,[8]; iv or p.o.,reaches and exceeds its Minimum Bactericidal Concentration
same,metabolites (breakdown products) in urine,[8]; mouse urine,did not provide evidence of breakdown products
same,conjugated (N-glucoronidation) metabolites in urine,"[8]; mouse urine, first 24 hr",No glucoronidation metabolites; also recorded: no evidence for the formation of conjugated metabolites
same,total amount after excretion (urine and feces),"[8]; mouse, in vivo",≤ 3 % of the delivered dose
same,total clearance,"[8]; mouse, in vivo",less than hepatic blood flow
same,AUC,"[8]; mouse, in vivo, iv, 3 mg/kg",792 ng·h/mL
same,Cmax,"[8]; mouse, in vivo, iv, 3 mg/kg",1040 ng/mL
same,Tmax,"[8]; mouse, in vivo, iv, 3 mg/kg",0 h
same,clearance,"[8]; mouse, in vivo, iv, 3 mg/kg",63.1 mL/min/kg
same,half-life,"[8]; mouse, in vivo, iv, 3 mg/kg",3.5 h
same,Vd,"[8]; mouse, in vivo, iv, 3 mg/kg, read-out: Vdss",11.8 L/kg
same,AUC,"[8]; mouse, in vivo, po, 25 mg/kg",254 ng·h/mL
same,Cmax,"[8]; mouse, in vivo, po, 25 mg/kg",135 ng/mL
same,Tmax,"[8]; mouse, in vivo, po, 25 mg/kg",0.31 h
same,bioavailability,"[8]; mouse, in vivo, po, 25 mg/kg",3.8%
same,half-life,"[8]; mouse, in vivo, po, 25 mg/kg",5.2 h
